# Data published in patent publication US20220399129A1, “SYSTEMS AND METHODS FOR TERRAFORMING” (Flagship Pioneering Innovations VI, LLC, priority 2021, published 2022).
# Test system: primary human bronchial epithelial cells (HBECs)
# Assay: ALI differentiation of HBECs with IL-13, immunofluorescence/histology readout
# Format: cell-based
# Settings: IL-13 treatment during ALI differentiation, day 14, 1 ng/mL
# Experimental: FIG. 14A illustrates an experimental scheme of culturing the undifferentiated basal cells known as primary human bronchial epithelial cells (HBECs) at the air-liquid interface in the presence or absence of IL-13 and the perturbagens. […] Pseudostratified airway epithelium was formed by day 14 of ALI differentiation in the presence of 1 ng/mL of […]. Total mucus (AB/PAS), goblet cells (Muc5ac^+), and ciliated cells (acetyl α-tubulin^+) were visualized via immunofluorescence or histology. For histology analysis, the differentiated HBECs on day 14 of ALI were stained with AB/PAS, Muc5ac, and acetyl α-tubulin. […] Immunofluorescence allows for a top down view of the most apical layer of cells, while histology presents a cross-section of the pseudostratified epithelium and is amenable for image quantification.
# Using scRNA-seq data, Compound B1 was predicted to inhibit goblet cells and promote club cells within the top 1.2% of compounds of the intervention library. […] Goblet and club cells were assessed by Muc5ac and Scgblal primers, respectively. […] Goblet and ciliated cells were assessed by Muc5ac and Foxj1 primers, respectively. […]
# Pseudostratified airway epithelium was formed by day 14 of ALI differentiation. […] In addition, qPCR of ciliated (Foxj1) and goblet (Muc5ac) marker expression was used as a sensitive and quantitative readout of epithelial cell type distribution. […]
substance,measurement,value
IL-13: inflammatory signaling cytokine (R&D) used to induce goblet cell hyperplasia,ciliated cells (acetyl α-tubulin+),reduces ciliated cells
same,"goblet cells (Muc5ac+), total mucus (AB/PAS)",induces goblet cell hyperplasia
